The target of the assay is Multidrug resistance protein 1a (Rattus norvegicus) (UniProt Q6PSM0). Briefly: TP_TRANSPORTER: uptake, inhibited by Verapamil, Vincristine and PSC833 in bile canalicular membrane vesicles from SD rat. The following applies: Sprague-Dawley, Bile canalicular membrane vesicle. It counts as functional, cell membranes.

Bridge positions count the residues as written; N and C are the ends. Square brackets hold non-standard residues; d marks the D form. Peptide text beside a SMILES is read from it. * marks the point of attachment. Threoninol(2S,3R) = C[C@@H](O)[C@H](CO)N*

Multidrug resistance protein 1a (Rattus norvegicus), sequence (Q6PSM0 as listed by the source): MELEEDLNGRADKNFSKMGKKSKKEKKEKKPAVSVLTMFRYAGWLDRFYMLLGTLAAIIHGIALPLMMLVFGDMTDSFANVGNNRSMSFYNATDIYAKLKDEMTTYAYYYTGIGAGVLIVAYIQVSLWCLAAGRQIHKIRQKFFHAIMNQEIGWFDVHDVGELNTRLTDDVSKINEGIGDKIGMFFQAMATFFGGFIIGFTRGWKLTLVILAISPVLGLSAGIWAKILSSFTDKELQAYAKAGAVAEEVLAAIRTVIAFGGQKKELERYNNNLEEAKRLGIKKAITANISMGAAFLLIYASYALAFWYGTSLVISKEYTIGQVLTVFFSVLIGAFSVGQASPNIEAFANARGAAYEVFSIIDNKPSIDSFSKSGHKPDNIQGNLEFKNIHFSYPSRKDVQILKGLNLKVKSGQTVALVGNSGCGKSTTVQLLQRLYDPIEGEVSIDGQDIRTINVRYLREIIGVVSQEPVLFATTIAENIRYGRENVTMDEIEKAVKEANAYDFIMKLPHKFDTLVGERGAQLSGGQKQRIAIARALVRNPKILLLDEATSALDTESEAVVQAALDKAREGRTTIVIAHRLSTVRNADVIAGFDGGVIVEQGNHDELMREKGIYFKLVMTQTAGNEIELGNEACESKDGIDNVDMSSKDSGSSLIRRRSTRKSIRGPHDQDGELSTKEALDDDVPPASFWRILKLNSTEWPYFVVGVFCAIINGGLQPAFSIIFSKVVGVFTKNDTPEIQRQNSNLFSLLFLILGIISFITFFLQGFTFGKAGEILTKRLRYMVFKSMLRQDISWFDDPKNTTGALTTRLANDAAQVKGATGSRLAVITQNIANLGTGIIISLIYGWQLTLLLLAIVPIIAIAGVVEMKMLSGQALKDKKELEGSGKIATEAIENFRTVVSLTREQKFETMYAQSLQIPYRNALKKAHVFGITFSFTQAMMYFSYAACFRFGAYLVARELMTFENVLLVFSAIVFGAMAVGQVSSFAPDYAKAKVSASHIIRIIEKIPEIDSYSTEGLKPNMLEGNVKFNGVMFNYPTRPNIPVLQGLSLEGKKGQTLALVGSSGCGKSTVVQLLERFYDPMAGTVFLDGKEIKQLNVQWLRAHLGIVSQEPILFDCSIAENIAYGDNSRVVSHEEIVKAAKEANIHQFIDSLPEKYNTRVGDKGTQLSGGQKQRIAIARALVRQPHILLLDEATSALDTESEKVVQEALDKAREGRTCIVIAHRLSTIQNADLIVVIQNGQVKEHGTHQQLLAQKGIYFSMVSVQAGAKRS

As for `C[C@@H](O)[C@H](CO)NC(=O)[C@@H]1CSSC[C@H](NC(=O)[C@H](N)Cc2ccccc2)C(=O)N[C@@H](Cc2ccccc2)C(=O)N[C@H](Cc2c[nH]c3ccccc23)C(=O)N[C@@H](CCCCN)C(=O)N[C@@H]([C@@H](C)O)C(=O)N1` (H-[dF]CF[dW]KTC-{Threoninol(2S,3R)}; disulfide 2-7), the Activity entry was “substrate [+]”.
